# Experimental data: ChEMBL document CHEMBL1671734, “An ertapenem-resistant extended-spectrum-beta-lactamase-producing Klebsiella pneumoniae clone carries a novel OmpK36 porin variant” (2010)
# Assays:
# Format in all cases: functional
# [1] = system: Klebsiella pneumoniae; test: Antimicrobial activity against ESBL-positive Klebsiella pneumoniae 71697 harboring porin OmpK36V mutant gene by Etest
# [2] = system: Klebsiella pneumoniae; test: Antimicrobial activity against ESBL-positive Klebsiella pneumoniae 69928 harboring porin OmpK36V mutant gene by Etest
# [3] = system: Klebsiella pneumoniae; test: Antimicrobial activity against ESBL-positive Klebsiella pneumoniae 69036 harboring porin OmpK36V mutant gene by Etest
# [4] = system: Klebsiella pneumoniae; test: Antimicrobial activity against ESBL-positive Klebsiella pneumoniae 50748 harboring porin OmpK36 gene by Etest
# [5] = system: Klebsiella pneumoniae; test: Antimicrobial activity against ESBL-positive Klebsiella pneumoniae 18260 harboring pSHA2-encoded porin OmpK36 gene by Etest
# [6] = system: Klebsiella pneumoniae; test: Antimicrobial activity against ESBL-positive Klebsiella pneumoniae 17829 harboring pSHA2-encoded porin OmpK36 gene by Etest
# [7] = system: Klebsiella pneumoniae; test: Antimicrobial activity against ESBL-positive Klebsiella pneumoniae 19039 harboring porin OmpK36V mutant gene by Etest
# [8] = system: Klebsiella pneumoniae; test: Antimicrobial activity against ESBL-positive Klebsiella pneumoniae 18918 harboring porin OmpK36V mutant gene by Etest
# [9] = system: Klebsiella pneumoniae; test: Antimicrobial activity against ESBL-positive Klebsiella pneumoniae 18567 harboring porin OmpK36V mutant gene by Etest
# [10] = system: Klebsiella pneumoniae; test: Antimicrobial activity against ESBL-positive Klebsiella pneumoniae 18260 by Etest
# [11] = system: Klebsiella pneumoniae; test: Antimicrobial activity against ESBL-positive Klebsiella pneumoniae 17834 harboring porin OmpK36V mutant gene by Etest
# [12] = system: Klebsiella pneumoniae; test: Antimicrobial activity against ESBL-positive Klebsiella pneumoniae 17830 harboring porin OmpK36V mutant gene by Etest
# [13] = system: Klebsiella pneumoniae; test: Antimicrobial activity against ESBL-positive Klebsiella pneumoniae 17829 by Etest
# [14] = system: Klebsiella pneumoniae; test: Antimicrobial activity against ESBL-positive Klebsiella pneumoniae 17049 harboring porin OmpK36V mutant gene by Etest
# [15] = system: Klebsiella pneumoniae; test: Antimicrobial activity against ESBL-positive Klebsiella pneumoniae 11932 harboring porin OmpK36 gene by Etest
# [16] = system: Klebsiella pneumoniae; test: Antimicrobial activity against ESBL-positive Klebsiella pneumoniae 16830 harboring porin OmpK36 gene by Etest
# [17] = system: Klebsiella pneumoniae; test: Antimicrobial activity against ESBL-positive Klebsiella pneumoniae 25008 by Etest
# [18] = system: Klebsiella pneumoniae; test: Antimicrobial activity against ESBL-positive Klebsiella pneumoniae 26077 harboring porin OmpK36V mutant gene by Etest
# [19] = system: Klebsiella pneumoniae; test: Antimicrobial activity against ESBL-positive Klebsiella pneumoniae 287942 harboring porin OmpK36 gene by Etest
# [20] = system: Klebsiella pneumoniae; test: Antimicrobial activity against ESBL-positive Klebsiella pneumoniae 29459 harboring porin OmpK36 gene by Etest
# [21] = system: Klebsiella pneumoniae; test: Antimicrobial activity against ESBL-positive Klebsiella pneumoniae 29830 harboring porin OmpK36V mutant gene by Etest
# [22] = system: Klebsiella pneumoniae; test: Antimicrobial activity against ESBL-negative Klebsiella pneumoniae 299332 harboring porin OmpK36 gene by Etest
# [23] = system: Klebsiella pneumoniae; test: Antimicrobial activity against ESBL-negative Klebsiella pneumoniae 30018 harboring porin OmpK35 gene by Etest
# [24] = system: Klebsiella pneumoniae; test: Antimicrobial activity against ESBL-positive Klebsiella pneumoniae 6267 harboring porin OmpK36V mutant gene by Etest
# [25] = system: Klebsiella pneumoniae; test: Antimicrobial activity against ESBL-positive Klebsiella pneumoniae 16855 harboring porin OmpK36 and OmpK35 genes by Etest
# [26] = system: Klebsiella pneumoniae; test: Antimicrobial activity against ESBL-positive Klebsiella pneumoniae 31750 harboring porin OmpK36 gene by Etest
SMILES,MIC [1] [µg/mL],MIC [2] [µg/mL],MIC [3] [µg/mL],MIC [4] [µg/mL],MIC [7] [µg/mL],MIC [8] [µg/mL],MIC [9] [µg/mL],MIC [10] [µg/mL],MIC [11] [µg/mL],MIC [12] [µg/mL],MIC [13] [µg/mL],MIC [14] [µg/mL],MIC [15] [µg/mL],MIC [16] [µg/mL],MIC [17] [µg/mL],MIC [18] [µg/mL],MIC [19] [µg/mL],MIC [20] [µg/mL],MIC [21] [µg/mL],MIC [23] [µg/mL],also measured
C[C@H]1[C@H](NC(=O)/C(=N\OC(C)(C)C(=O)O)c2csc(N)n2)C(=O)N1S(=O)(=O)O [AZTREONAM],> 256,> 256,> 256,> 256,> 256,> 256,> 256,> 256,> 256,> 256,> 256,> 256,> 256,> 256,> 256,> 256,> 256,> 256,> 256,0.064,MIC [5]: > 256 µg/mL; MIC [6]: > 256 µg/mL; MIC [22]: 0.25 µg/mL
CO/N=C(\C(=O)N[C@@H]1C(=O)N2C(C(=O)[O-])=C(C[N+]3(C)CCCC3)CS[C@H]12)c1csc(N)n1 [CEFEPIME],> 256,> 256,> 256,48,> 256,> 256,> 256,> 256,> 256,> 256,> 256,> 256,48,,> 256,> 256,,96,> 256,0.047,MIC [24]: > 256 µg/mL
CO/N=C(\C(=O)N[C@@H]1C(=O)N2C(C(=O)O)=C(COC(C)=O)CS[C@H]12)c1csc(N)n1 [CEFOTAXIME],> 32,> 32,> 32,> 32,> 32,> 32,> 32,> 32,> 32,> 32,> 32,> 32,> 32,> 32,> 32,> 32,> 32,> 32,> 32,0.094,MIC [25]: > 32 µg/mL; MIC [24]: > 32 µg/mL; MIC [22]: 0.125 µg/mL; MIC [26]: > 32 µg/mL
CO[C@@]1(NC(=O)Cc2cccs2)C(=O)N2C(C(=O)O)=C(COC(N)=O)CS[C@@H]21 [CEFOXITIN],128,48,128,6,> 256,> 256,> 256,> 256,96,96,> 256,> 256,6,3,64,128,4,6,128,3,MIC [5]: 256 µg/mL; MIC [6]: 256 µg/mL; MIC [25]: 24 µg/mL; MIC [24]: 32 µg/mL; MIC [22]: 4 µg/mL; MIC [26]: 3 µg/mL
